# Measured values published in article PMC4577729, “7-(Pyrazol-4-yl)-3H-imidazo[4,5-b]pyridine-based derivatives for kinase inhibition: Co-crystallisation studies with Aurora-A reveal distinct differences in the orientation of the pyrazole N1-substituent” (Bioorganic & Medicinal Chemistry Letters, 2015).
# Key:
# Assay in all cases: Kinase selectivity profiling
# Format in all cases: biochemical
# Aurora A = target: T1, Aurora A (Homo sapiens, UniProt O14965); conditions: 1 µM, assay duplicates
# T1 sequence (O14965 1-403): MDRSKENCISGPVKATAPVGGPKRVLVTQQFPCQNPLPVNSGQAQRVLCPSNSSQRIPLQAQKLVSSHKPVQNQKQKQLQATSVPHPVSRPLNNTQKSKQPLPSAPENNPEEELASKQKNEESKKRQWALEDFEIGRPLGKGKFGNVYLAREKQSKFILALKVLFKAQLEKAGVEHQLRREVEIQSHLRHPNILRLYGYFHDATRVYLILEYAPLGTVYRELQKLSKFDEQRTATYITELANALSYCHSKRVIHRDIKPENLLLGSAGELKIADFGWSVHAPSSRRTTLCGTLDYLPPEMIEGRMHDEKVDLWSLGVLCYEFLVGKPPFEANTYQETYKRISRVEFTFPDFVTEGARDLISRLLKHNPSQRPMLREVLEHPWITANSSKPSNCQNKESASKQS
# Procedure: (§1) [20] Kinase selectivity profiling for compounds 7a, 7d, 14d and 14g was carried out at the International Centre for Protein Kinase Profiling, Division of Signal Transduction Therapy, University of Dundee.
# (§2) Table S1: Kinase selectivity profiling of compounds 7a and 7d in a 102-kinase panel screened at a concentration of 1 µM.
# (§3) Table S2: Kinase selectivity profiling of compounds 14d and 14g in a 105-kinase panel screened at a concentration of 1 µM.
# BRSK1 = BRSK1 (Homo sapiens, UniProt Q8TDC3); conditions: 1 µM, assay duplicates
# Procedure: as §1, §2, §3
# CAMK1 = CAMK1 (Homo sapiens, UniProt Q14012); conditions: 1 µM, assay duplicates
# Chain of CAMK1 (Q14012 whole entry): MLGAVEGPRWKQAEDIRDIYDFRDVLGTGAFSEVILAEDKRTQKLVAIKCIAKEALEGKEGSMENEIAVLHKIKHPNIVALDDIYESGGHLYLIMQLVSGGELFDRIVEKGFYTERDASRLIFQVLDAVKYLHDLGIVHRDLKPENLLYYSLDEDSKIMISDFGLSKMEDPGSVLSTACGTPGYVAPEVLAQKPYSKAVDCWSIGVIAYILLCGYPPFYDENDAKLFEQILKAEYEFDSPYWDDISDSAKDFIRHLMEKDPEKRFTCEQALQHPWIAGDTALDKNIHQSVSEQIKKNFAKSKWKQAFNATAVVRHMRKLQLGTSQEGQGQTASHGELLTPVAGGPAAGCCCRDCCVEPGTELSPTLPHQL
# Procedure: as §1, §2, §3
# DYRK1A = DYRK1A (Homo sapiens, UniProt Q13627); conditions: 1 µM, assay duplicates
# Procedure: as §1, §2, §3
# DYRK2 = DYRK2 (Homo sapiens, UniProt Q92630); conditions: 1 µM, assay duplicates
# Procedure: as §1, §2, §3
# EPH-B3 = EPH-B3 (Homo sapiens, UniProt P54753); conditions: 1 µM, assay duplicates
# Procedure: as §1, §2, §3
# ERK1 = ERK1 (Homo sapiens, UniProt P27361); conditions: 1 µM, assay duplicates
# Procedure: as §1, §2, §3
# ERK2 = ERK2 (Homo sapiens, UniProt P28482); conditions: 1 µM, assay duplicates
# Procedure: as §1, §2, §3
# ERK8 = target: T2, ERK8 (Homo sapiens, UniProt Q8TD08); conditions: for ERK8 inhibition: 1 μM; for ERK8 % activity remaining: 1 µM, assay duplicates
# T2 sequence (Q8TD08 1-544): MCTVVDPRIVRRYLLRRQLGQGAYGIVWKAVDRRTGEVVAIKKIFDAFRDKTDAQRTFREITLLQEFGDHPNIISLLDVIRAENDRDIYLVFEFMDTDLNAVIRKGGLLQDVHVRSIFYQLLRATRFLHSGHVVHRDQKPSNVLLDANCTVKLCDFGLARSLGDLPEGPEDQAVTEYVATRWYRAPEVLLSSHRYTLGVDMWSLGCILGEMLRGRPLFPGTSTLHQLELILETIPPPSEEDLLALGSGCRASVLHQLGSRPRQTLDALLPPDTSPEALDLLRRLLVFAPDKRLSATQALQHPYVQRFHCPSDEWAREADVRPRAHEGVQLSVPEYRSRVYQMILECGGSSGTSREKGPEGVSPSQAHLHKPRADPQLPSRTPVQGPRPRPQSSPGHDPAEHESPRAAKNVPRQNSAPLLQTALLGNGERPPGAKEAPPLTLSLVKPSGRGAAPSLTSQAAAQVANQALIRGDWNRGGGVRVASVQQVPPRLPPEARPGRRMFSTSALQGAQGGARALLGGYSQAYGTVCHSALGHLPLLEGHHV
# Procedure: as §1, §2, §3
# IR = IR (Homo sapiens, UniProt P06213); conditions: 1 µM, assay duplicates
# Chain of IR (P06213 28-1382): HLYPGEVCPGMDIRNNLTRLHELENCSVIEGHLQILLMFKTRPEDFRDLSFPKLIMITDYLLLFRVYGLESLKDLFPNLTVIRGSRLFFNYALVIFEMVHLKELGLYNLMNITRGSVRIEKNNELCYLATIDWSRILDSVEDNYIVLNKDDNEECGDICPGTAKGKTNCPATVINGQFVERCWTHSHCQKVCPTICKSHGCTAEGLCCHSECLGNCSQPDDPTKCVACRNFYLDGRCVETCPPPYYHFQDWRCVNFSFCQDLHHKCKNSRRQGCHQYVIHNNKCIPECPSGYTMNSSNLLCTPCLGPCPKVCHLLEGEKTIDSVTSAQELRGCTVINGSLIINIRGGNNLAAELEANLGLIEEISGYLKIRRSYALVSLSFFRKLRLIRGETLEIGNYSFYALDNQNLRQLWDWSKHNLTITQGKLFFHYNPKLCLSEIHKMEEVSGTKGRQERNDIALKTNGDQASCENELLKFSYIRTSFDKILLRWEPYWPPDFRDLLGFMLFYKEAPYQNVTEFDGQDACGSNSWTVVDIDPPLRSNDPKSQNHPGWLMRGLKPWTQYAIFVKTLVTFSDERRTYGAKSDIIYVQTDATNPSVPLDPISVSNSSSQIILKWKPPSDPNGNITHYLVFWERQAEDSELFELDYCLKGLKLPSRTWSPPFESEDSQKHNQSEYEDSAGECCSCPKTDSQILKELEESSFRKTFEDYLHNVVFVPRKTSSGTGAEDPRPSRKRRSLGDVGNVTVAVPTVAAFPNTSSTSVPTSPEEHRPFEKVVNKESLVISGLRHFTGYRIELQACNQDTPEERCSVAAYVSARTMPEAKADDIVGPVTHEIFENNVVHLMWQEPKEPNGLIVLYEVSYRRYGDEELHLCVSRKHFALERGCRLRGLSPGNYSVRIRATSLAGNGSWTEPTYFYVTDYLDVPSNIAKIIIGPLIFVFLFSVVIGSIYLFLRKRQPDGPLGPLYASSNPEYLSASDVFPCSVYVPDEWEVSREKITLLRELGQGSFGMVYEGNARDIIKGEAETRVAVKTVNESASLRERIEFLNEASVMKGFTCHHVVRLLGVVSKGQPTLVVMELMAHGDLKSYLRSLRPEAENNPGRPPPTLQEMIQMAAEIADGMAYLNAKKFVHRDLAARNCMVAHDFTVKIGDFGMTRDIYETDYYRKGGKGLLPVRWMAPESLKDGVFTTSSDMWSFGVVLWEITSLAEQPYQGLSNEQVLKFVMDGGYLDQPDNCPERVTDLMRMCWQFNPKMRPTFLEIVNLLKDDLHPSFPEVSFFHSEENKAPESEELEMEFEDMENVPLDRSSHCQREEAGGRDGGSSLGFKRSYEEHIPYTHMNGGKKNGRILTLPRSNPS
# Procedure: as §1, §2, §3
# IRAK4 = IRAK4 (Homo sapiens, UniProt Q9NWZ3); conditions: 1 µM, assay duplicates
# Procedure: as §1, §2, §3
# JNK3 = JNK3 (Homo sapiens, UniProt P53779); conditions: 1 µM, assay duplicates
# Procedure: as §1, §2, §3
# LKB1 = LKB1 (Homo sapiens, UniProt Q15831); conditions: 1 µM, assay duplicates
# Procedure: as §1, §2, §3
# MELK = MELK (Homo sapiens, UniProt Q14680); conditions: 1 µM, assay duplicates
# Procedure: as §1, §2, §3
# MINK1 = MINK1 (Homo sapiens, UniProt Q8N4C8); conditions: 1 µM, assay duplicates
# Procedure: as §1, §2, §3
# MKK1 = MKK1 (Homo sapiens, UniProt Q02750); conditions: 1 µM, assay duplicates
# Procedure: as §1, §2, §3
# MLK3 = MLK3 (Homo sapiens, UniProt Q16584); conditions: 1 µM, assay duplicates
# Procedure: as §1, §2, §3
# MNK1 = MNK1 (Homo sapiens, UniProt Q9BUB5); conditions: 1 µM, assay duplicates
# Chain of MNK1 (Q9BUB5 whole entry): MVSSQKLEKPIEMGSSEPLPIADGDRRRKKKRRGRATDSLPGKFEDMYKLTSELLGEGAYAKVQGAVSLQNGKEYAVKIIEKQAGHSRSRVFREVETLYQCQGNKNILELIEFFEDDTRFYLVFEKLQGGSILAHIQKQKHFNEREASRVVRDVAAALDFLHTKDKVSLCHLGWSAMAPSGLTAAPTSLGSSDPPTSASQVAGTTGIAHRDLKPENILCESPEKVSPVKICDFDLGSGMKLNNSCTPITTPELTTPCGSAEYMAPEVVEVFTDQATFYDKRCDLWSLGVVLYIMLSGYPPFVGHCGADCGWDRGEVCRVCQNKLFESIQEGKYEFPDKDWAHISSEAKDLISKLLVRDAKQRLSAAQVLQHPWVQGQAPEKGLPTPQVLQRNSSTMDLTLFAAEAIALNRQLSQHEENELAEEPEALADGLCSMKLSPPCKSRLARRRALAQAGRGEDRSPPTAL
# Procedure: as §1, §2, §3
# MSK1 = MSK1 (Homo sapiens, UniProt O75582); conditions: 1 µM, assay duplicates
# Procedure: as §1, §2, §3
# PAK2 = PAK2 (Homo sapiens, UniProt Q13177); conditions: 1 µM, assay duplicates
# Procedure: as §1, §2, §3
# PAK6 = PAK6 (Homo sapiens, UniProt Q9NQU5); conditions: 1 µM, assay duplicates
# Procedure: as §1, §2, §3
# PHK = PHK (Homo sapiens, UniProt Q16816); conditions: 1 µM, assay duplicates
# Procedure: as §1, §2, §3
# PRAK = PRAK (Homo sapiens, UniProt Q8IW41); conditions: 1 µM, assay duplicates
# Procedure: as §1, §2, §3
# SGK1 = SGK1 (Homo sapiens, UniProt O00141); conditions: 1 µM, assay duplicates
# Procedure: as §1, §2, §3
# SRPK1 = SRPK1 (Homo sapiens, UniProt Q96SB4); conditions: 1 µM, assay duplicates
# Procedure: as §1, §2, §3
# TBK1 = TBK1 (Homo sapiens, UniProt Q9UHD2); conditions: 1 µM, assay duplicates
# Chain of TBK1 (Q9UHD2 whole entry): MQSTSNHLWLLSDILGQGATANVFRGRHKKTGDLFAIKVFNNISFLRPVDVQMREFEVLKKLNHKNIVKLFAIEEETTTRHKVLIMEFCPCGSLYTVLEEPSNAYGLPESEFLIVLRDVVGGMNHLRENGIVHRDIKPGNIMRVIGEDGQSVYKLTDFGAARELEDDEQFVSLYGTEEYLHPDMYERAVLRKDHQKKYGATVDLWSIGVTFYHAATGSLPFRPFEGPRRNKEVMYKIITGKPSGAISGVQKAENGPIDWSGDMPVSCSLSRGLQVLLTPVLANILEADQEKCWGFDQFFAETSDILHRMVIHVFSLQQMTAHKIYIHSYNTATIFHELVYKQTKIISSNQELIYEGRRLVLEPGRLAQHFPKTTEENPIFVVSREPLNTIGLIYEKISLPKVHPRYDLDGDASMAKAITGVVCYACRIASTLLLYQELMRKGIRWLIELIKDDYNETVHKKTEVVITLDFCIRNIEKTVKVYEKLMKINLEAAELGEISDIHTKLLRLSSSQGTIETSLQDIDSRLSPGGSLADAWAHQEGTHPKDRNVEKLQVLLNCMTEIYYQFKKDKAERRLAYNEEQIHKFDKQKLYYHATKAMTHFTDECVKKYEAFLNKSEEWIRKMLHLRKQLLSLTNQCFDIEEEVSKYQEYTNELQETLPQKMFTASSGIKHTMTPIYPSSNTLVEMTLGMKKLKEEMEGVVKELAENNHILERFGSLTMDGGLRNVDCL
# Procedure: as §1, §2, §3
# TrkA = TrkA (Homo sapiens, UniProt P04629); conditions: for TrkA inhibition: 1 μM; for TrkA % activity remaining: 1 µM, assay duplicates
# Chain of TrkA (P04629 33-796): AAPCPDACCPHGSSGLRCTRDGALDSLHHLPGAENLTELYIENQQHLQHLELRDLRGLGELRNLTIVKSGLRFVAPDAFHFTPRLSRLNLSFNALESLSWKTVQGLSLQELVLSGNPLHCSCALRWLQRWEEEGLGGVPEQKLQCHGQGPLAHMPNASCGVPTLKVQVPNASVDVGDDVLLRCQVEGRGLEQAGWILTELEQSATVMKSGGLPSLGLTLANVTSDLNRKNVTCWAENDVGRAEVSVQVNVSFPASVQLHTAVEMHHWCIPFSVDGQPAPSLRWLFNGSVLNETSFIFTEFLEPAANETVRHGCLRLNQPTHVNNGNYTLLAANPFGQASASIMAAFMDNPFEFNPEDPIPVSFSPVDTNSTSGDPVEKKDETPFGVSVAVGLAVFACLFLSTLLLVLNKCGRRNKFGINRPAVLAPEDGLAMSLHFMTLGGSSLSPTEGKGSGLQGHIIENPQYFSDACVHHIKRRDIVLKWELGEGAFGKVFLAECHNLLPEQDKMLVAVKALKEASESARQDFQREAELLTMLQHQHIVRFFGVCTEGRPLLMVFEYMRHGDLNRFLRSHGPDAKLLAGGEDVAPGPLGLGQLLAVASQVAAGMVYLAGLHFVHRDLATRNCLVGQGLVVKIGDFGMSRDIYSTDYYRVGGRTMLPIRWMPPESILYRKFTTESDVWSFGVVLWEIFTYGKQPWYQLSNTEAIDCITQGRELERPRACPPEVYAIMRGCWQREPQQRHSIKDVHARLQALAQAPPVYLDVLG
# Procedure: as §1, §2, §3
# VEG-FR = VEG-FR (Homo sapiens, UniProt P17948); conditions: for VEGFR inhibition: 1 μM; for VEG-FR % activity remaining: 1 µM, assay duplicates
# Chain of VEG-FR (P17948 27-1338): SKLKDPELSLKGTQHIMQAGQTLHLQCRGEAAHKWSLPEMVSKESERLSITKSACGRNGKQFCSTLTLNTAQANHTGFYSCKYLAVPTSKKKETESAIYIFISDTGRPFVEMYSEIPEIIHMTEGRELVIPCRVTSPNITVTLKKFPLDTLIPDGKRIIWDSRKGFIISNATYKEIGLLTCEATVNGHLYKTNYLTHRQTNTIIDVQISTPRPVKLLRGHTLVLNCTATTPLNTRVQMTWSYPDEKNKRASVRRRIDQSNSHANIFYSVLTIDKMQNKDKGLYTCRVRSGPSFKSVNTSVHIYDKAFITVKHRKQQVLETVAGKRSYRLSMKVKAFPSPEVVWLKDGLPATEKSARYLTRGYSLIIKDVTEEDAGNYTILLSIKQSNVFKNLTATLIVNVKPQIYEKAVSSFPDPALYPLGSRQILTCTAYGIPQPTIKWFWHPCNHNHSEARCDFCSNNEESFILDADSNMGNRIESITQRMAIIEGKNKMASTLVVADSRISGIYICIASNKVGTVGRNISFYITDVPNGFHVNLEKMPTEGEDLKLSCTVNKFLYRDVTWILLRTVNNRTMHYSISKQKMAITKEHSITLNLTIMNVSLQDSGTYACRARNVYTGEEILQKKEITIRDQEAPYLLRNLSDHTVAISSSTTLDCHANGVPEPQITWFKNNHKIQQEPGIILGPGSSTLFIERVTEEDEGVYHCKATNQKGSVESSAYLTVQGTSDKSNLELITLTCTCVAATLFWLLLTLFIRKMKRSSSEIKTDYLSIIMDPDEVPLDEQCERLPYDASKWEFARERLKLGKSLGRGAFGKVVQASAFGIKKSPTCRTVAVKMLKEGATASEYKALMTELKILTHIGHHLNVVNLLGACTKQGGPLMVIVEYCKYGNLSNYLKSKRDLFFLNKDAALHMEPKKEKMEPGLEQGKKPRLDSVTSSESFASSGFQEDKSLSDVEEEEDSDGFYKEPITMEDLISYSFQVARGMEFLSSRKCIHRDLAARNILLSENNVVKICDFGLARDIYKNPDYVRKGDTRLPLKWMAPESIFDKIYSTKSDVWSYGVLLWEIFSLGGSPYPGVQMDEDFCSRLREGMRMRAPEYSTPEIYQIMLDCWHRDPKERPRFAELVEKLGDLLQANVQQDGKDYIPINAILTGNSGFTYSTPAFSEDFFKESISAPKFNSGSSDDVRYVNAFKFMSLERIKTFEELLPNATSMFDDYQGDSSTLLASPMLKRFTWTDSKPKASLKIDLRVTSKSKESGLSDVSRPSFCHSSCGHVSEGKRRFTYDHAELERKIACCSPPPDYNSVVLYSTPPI
# Procedure: as §1, §2, §3
# p38d MAPK = p38d MAPK (Homo sapiens, UniProt O15264); conditions: 1 µM, assay duplicates
# Procedure: as §1, §2, §3
SMILES,Aurora A % activity remaining (Aurora A) [%],BRSK1 % activity remaining (BRSK1) [%],CAMK1 % activity remaining (CAMK1) [%],DYRK1A % activity remaining (DYRK1A) [%],DYRK2 % activity remaining (DYRK2) [%],EPH-B3 % activity remaining (EPH-B3) [%],ERK1 % activity remaining (ERK1) [%],ERK2 % activity remaining (ERK2) [%],ERK8 inhibition (ERK8),ERK8 % activity remaining (ERK8) [%],IR % activity remaining (IR) [%],IRAK4 % activity remaining (IRAK4) [%],JNK3 % activity remaining (JNK3) [%],LKB1 % activity remaining (LKB1) [%],MELK % activity remaining (MELK) [%],MINK1 % activity remaining (MINK1) [%],MKK1 % activity remaining (MKK1) [%],MLK3 % activity remaining (MLK3) [%],MNK1 % activity remaining (MNK1) [%],MSK1 % activity remaining (MSK1) [%],other results
Cc1cc(Cn2cc(-c3c(Cl)cnc4[nH]c(-c5cn(C)nc5C)nc34)cn2)no1 [Compound 14d],1,61,77,9,34,54,52,32,≥ 80%,1,53,33,62,62,49,86,40,6,64,61,PAK2 % activity remaining (PAK2): 102%; PAK6 % activity remaining (PAK6): 45%; PHK % activity remaining (PHK): 27%; PRAK % activity remaining (PRAK): 100%; SGK1 % activity remaining (SGK1): 65%; SRPK1 % activity remaining (SRPK1): 31%; TBK1 % activity remaining (TBK1): 7%; TrkA inhibition (TrkA): ≥ 80%; TrkA % activity remaining (TrkA): 15%; VEGFR inhibition (VEG-FR): ≥ 80%; VEG-FR % activity remaining (VEG-FR): 7%; p38d MAPK % activity remaining (p38d MAPK): 41%
Cc1nn(C)cc1-c1nc2c(-c3cnn(Cc4ccccc4)c3)c(Cl)cnc2[nH]1 [Compound 7a],1,36,87,3,29,99,28,16,greater than 80%,6,3,28,18,49,19,28,28,2,55,62,PAK2 % activity remaining (PAK2): 82%; PAK6 % activity remaining (PAK6): 42%; PHK % activity remaining (PHK): 17%; PRAK % activity remaining (PRAK): 83%; SGK1 % activity remaining (SGK1): 56%; SRPK1 % activity remaining (SRPK1): 73%; TBK1 % activity remaining (TBK1): 24%; TrkA inhibition (TrkA): greater than 80%; TrkA % activity remaining (TrkA): 6%; VEGFR inhibition (VEG-FR): greater than 80%; VEG-FR % activity remaining (VEG-FR): 6%; p38d MAPK % activity remaining (p38d MAPK): 18%
